Earlier results, collected in paper PMC6376154 (International Journal for Parasitology: Drugs and Drug …, 2019).
Where two headings read alike, the source gives them in different places.

Tested on: P. falciparum 3D7 asexual blood stage
Conditions: cited from earlier work
[1] = ChEMBL-NTD value per source (GNF, GSK, StJude), several values in a cell follow the order of the sources, read-out: CHEMBL EC50
[2] = MMV Malaria Box data sheet, ref MMV data sheets
[3] = MMV Malaria Box data sheet, ref MMV data sheets, read-out: EC50_nM
[4] = source GSK, ref ChEMBL_NTD, read-out: CHEMBL EC50
[5] = MMV Malaria Box data sheet (supplement mmc2.xls), ref MMV data sheet
[6] = value(s) per source (GSK, GNF, StJude), separated by semicolon, ref ChEMBL-NTD, read-out: CHEMBL EC50
[7] = MMV Malaria Box sheet, ref MMV data sheets
[8] = MMV Malaria Box sheet, ref MMV data sheets, read-out: EC50_nM
[9] = MMV Malaria Box data sheet (supplement mmc2.xls), ref MMV data sheet, read-out: EC50_nM
[10] = source StJude, ref ChEMBL_NTD, read-out: CHEMBL EC50
[11] = source GNF, ref ChEMBL_NTD, read-out: CHEMBL EC50

Cn1c(=O)n(C)c2cc(CNCCNc3ccnc4cc(Cl)ccc34)ccc21 [MMV665875]
EC50 [1]: 140 nM

CCC(c1ccccc1)c1nn2c(-c3cccs3)nnc2s1 (stereo not drawn) [MMV665876]
percent_inh @ 5 uM [2]: 99% | EC50 [3]: 259 nM | EC50 [4]: 167 nM

COc1cccc(NC(=O)[C@H](C(C)C)n2c(=O)[nH]c3ccccc3c2=O)c1 [MMV665878]
percent_inh @ 5 uM [2]: 99% | EC50 [3]: 139 nM | EC50 [4]: 266 nM

CC(C)(C)C(=O)Nc1ccc(C(=O)Nc2cccc(-c3nc4ccccc4[nH]3)c2)cc1 [MMV665879]
percent_inh @ 5 uM [5]: 91% | EC50 [6]: 282 nM

COc1ccc(CNC(=O)c2cc3c(=O)n4ccccc4nc3n(CCc3ccccc3)c2=N)cc1 [MMV665881]
EC50 [1]: 330 nM

OC(CNC1CCCCC1)Cn1c2ccc(I)cc2c2cc(I)ccc21 (stereo not drawn) [MMV665882]
EC50 [1]: 337 nM

O=C(Nc1cccc(-c2nc3ccccc3[nH]2)c1)c1cccc(NC(=O)c2ccco2)c1 [MMV665883]
percent_inh @ 5 uM [7]: 95% | EC50 [8]: 745 nM | EC50 [4]: 360 nM

CC(Oc1ccc(NC(=O)c2cccs2)cc1)C(=O)c1ccc(Cl)cc1 (stereo not drawn) [MMV665886]
EC50 [1]: 774 nM

O=C(Nc1ccccc1O)c1ccc(Oc2cccc(C(=O)Nc3ccccc3O)c2)cc1 [MMV665888]
percent_inh @ 5 uM [5]: 91% | EC50 [6]: 799 nM

COc1ccc(-c2nonc2NC(=O)c2cccc(C)c2)cc1OC [MMV665890]
percent_inh @ 5 uM [5]: 95% | EC50 [6]: 806 nM

c1ccc(-c2ccc(-c3nc4ccccc4[nH]3)cc2)cc1 [MMV665891]
percent_inh @ 5 uM [5]: 52% | EC50 [9]: 1070 nM | EC50 [6]: 809 nM

CC(=O)c1sc(NC(=O)Nc2ccc(C)cc2C)nc1C [MMV665894]
EC50 [1]: 906 nM

COc1ccc2nc(N)nc(C)c2c1 [MMV665897]
percent_inh @ 5 uM [7]: 63% | EC50 [4]: 927 nM

COc1cc(C(=O)Nc2ccc(-c3nc4ccccc4[nH]3)cc2)cc(OC)c1OC [MMV665898]
EC50 [1]: 982 nM

O=C(c1ccccc1F)N(Cc1ccc(Cl)cc1)c1ccccn1 [MMV665899]
percent_inh @ 5 uM [5]: 59% | EC50 [6]: 1020 nM

O=C(Nc1ccc(CN2CCOCC2)cc1)c1ccc(-c2ccc(Br)cc2)o1 [MMV665901]
percent_inh @ 5 uM [5]: 96% | EC50 [9]: 1360 nM | EC50 [6]: 1120 nM

N=c1n(CCN2CCCCC2)c2ccccc2n1CC(O)c1cccc(Br)c1 (stereo not drawn) [MMV665902]
percent_inh @ 5 uM [5]: 98% | EC50 [9]: 893 nM | EC50 [6]: 1140 nM

COCCn1c(C)nc2ccccc2c1=O [MMV665904]
percent_inh @ 5 uM [7]: 59% | EC50 [4]: 1460 nM

Cc1ccc(-c2cc(C(=O)Nc3ccc(S(=O)(=O)N4CCCCC4)cc3)[nH]n2)c(O)c1 [MMV665906]
percent_inh @ 5 uM [5]: 94% | EC50 [9]: 535 nM | EC50 [6]: 1770 nM

COc1ccc(N2CCN(C(CNC(=O)CC(C)(C)C)c3ccc4c(c3)OCO4)CC2)cc1 (stereo not drawn) [MMV665908]
percent_inh @ 5 uM [7]: 95% | EC50 [10]: 4280 nM

O=C(Nc1nc(-c2ccccn2)cs1)c1ccccc1Br [MMV665909]
percent_inh @ 5 uM [2]: 97% | EC50 [3]: 1360 nM | EC50 [10]: 4530 nM

CCOc1ccc(-c2nc(NC(=O)c3cccc(S(C)(=O)=O)c3)sc2C)cc1 [MMV665913]
percent_inh @ 5 uM [5]: 95% | EC50 [6]: 15000 nM

COc1ccccc1N1CCN(C(CNS(=O)(=O)c2ccc(Cl)cc2)c2cccnc2)CC1 (stereo not drawn) [MMV665914]
percent_inh @ 5 uM [5]: 93% | EC50 [6]: 15000 nM

COc1ccc(-c2nc(NC(=O)CS(=O)(=O)c3ccc(F)cc3)sc2C)cc1 [MMV665915]
percent_inh @ 5 uM [2]: 97% | EC50 [3]: 448 nM | EC50 [11]: 212 nM | EC50 [4]: 243 nM

COc1ccccc1CNC(=O)CCn1c(=O)[nH]c2ccccc2c1=O [MMV665916]
percent_inh @ 5 uM [2]: 64% | EC50 [3]: 72.6 nM | EC50 [11]: 537 nM

O=C(Nc1ccc(Cl)cc1)N1CCN(c2ccc3nncn3n2)CC1 [MMV665917]
percent_inh @ 5 uM [2]: 62% | EC50 [11]: 2060 nM

O=C(CSc1ccc2nnc(-c3cccc(F)c3)n2n1)Nc1ccc2c(c1)OCO2 [MMV665918]
percent_inh @ 5 uM [5]: 92% | EC50 [6]: 2110 nM

N=c1c2ccccc2nnn1-c1cccc(C(F)(F)F)c1 [MMV665923]
EC50 [1]: 134 nM

COc1ccc(C(=O)C2CC2c2ccc(Cl)cc2)cc1 (stereo not drawn) [MMV665924]
percent_inh @ 5 uM [7]: 94% | EC50 [8]: 1060 nM | EC50 [11]: 217 nM

O=C(CCl)NCCOc1ccc(Cl)cc1Cl [MMV665927]
EC50 [1]: 538 nM

CCC(C)NCC(O)(c1ccc(Cl)cc1)c1ccc(Cl)cc1 (stereo not drawn) [MMV665928]
percent_inh @ 5 uM [2]: 98% | EC50 [3]: 642 nM | EC50 [11]: 639 nM | EC50 [4]: 843 nM

CCCCNCC(O)(c1ccc(Cl)cc1)c1ccc(Cl)cc1 [MMV665929]
percent_inh @ 5 uM [5]: 97% | EC50 [9]: 843 nM | EC50 [6]: 720 nM

O=C1c2ccccc2-c2nnc(-c3ccc(Br)cc3)cc21 [MMV665934]
percent_inh @ 5 uM [7]: 99% | EC50 [8]: 1070 nM | EC50 [11]: 2500 nM

FC(F)(F)c1ccc(Nc2nnnc3ccccc23)cc1 [MMV665935]
percent_inh @ 5 uM [5]: 77%
